As usually defined, the pIC50 is the negative decadic logarithm of the IC50, by convention in mol/L. Lower therefore signals a large IC50.

The values that follow come from patent US10130633B2, “Compounds” (BAYER PHARMA AKTIENGESELLSCHAFT, priority 2013, dated 2018).

The subject of assay [1] is constitutive active colorectal cancer cell (CRC) Wnt pathway. The assay can be described thus: HCT116 TOPFlash cellular reporter assay (Super TopFlash luciferase), constitutive active Wnt pathway. Format: cell-based. To be noted: HCT116 TOP reporter cells, 36 hours incubation, luciferase expression. As to the method:
In order to discover and characterize small molecules which inhibit the constitutive active colorectal cancer cell (CRC) Wnt pathway, a cellular reporter assay was employed. […] Stable transfectants were generated by cotransfection with pcDNA3 and selection of stable transfected cells with 1 mg/ml G418.

For assay [2], the system named is HCT116 FOP control reporter cell line. The assay can be described thus: HCT116 FOPFlash control reporter assay (FOP control vector, non-functional TCF elements). Format: cell-based. The settings on record: HCT116 FOP control reporter cells, 36 hours incubation, luciferase expression. The text has this:
In a parallel approach, HCT116 cells were cotransfected with the FOP control vector and pcDNA3. The FOP vector is identical to the TOP construct, but it contains instead of functional TCF elements a randomized, non-functional sequence. For this transfection a stable transfected cell line was generated as well.
A general note: A reporter such as luciferase makes a cellular process visible.

pIC50: −log10 of the molar value. Where a name gives a salt, the structure may show the parent alone.

Turning to `C[C@H]1CN(C)CCN1CC(=O)Nc1cc(C(=O)Nc2ccc(-c3ccccc3F)nc2)ccc1OC(F)(F)F` [Example 162, 3-({[(2S)-2,4-dimethylpiperazin-1-yl]acetyl}amino)-N-[6-(2-fluorophenyl)pyridin-3-yl]-4-(trifluoromethoxy)benzamide], the negative logarithm of the IC50 (pIC50) is 7.07 in assay [1] (Homo sapiens, HCT-116, 36 h) and not above 4.30 in assay [2] (Homo sapiens, HCT-116, 36 h).

Regarding `C[C@H]1CN(CC(=O)Nc2cc(C(=O)Nc3ccc(-c4ccccc4F)nc3)ccc2OC(F)(F)F)CCN1C` [Example 163, 3-({[(3S)-3,4-dimethylpiperazin-1-yl]acetyl}amino)-N-[6-(2-fluorophenyl)pyridin-3-yl]-4-(trifluoromethoxy)benzamide], the pIC50 was 7.24 in assay [1] (Homo sapiens, HCT-116, 36 h) and not above 4.30 in assay [2] (Homo sapiens, HCT-116, 36 h).

`C[C@@H]1CN(CC(=O)Nc2cc(C(=O)Nc3ccc(-c4ccccc4F)nc3)ccc2OC(F)(F)F)CCN1C` [Example 164, 3-({[(3R)-3,4-dimethylpiperazin-1-yl]acetyl}amino)-N-[6-(2-fluorophenyl)pyridin-3-yl]-4-(trifluoromethoxy)benzamide]: the pIC50 was 6.66 in assay [1] (Homo sapiens, HCT-116, 36 h) and not above 4.30 in assay [2] (Homo sapiens, HCT-116, 36 h).

With `CC1CN(C)CCN1CC(=O)Nc1cc(C(=O)Nc2ccc(-c3ccccc3F)nc2)ccc1OC(F)(F)F` (stereo not shown) [Example 165, 3-{[(2,4-dimethylpiperazin-1-yl)acetyl]amino}-N-[6-(2-fluorophenyl)pyridin-3-yl]-4-(trifluoromethoxy)benzamide], the pIC50 in assay [1] (Homo sapiens, HCT-116, 36 h) is 7.29; in assay [2] (Homo sapiens, HCT-116, 36 h), 5.14.

`CN1C2CCC1CN(CC(=O)Nc1cc(C(=O)Nc3ccc(-c4ccccc4F)nc3)ccc1OC(F)(F)F)C2` [Example 166, N-[6-(2-fluorophenyl)pyridin-3-yl]-3-{[(8-methyl-3,8-diazabicyclo[3.2.1]oct-3-yl)acetyl]amino}-4-(trifluoromethoxy)benzamide]: the pIC50 in assay [1] (Homo sapiens, HCT-116, 36 h) is 6.83; in assay [2] (Homo sapiens, HCT-116, 36 h) it was 5.41.

Turning to `CC1CN(C)CCN1CC(=O)Nc1cc(C(=O)Nc2nnc(-c3ccccc3)s2)ccc1OC(F)(F)F` (stereo not shown) [Example 167, 3-{[(2,4-dimethylpiperazin-1-yl)acetyl]amino}-N-(5-phenyl-1,3,4-thiadiazol-2-yl)-4-(trifluoromethoxy)benzamide], the pIC50 in assay [1] (Homo sapiens, HCT-116, 36 h) is 6.16; in assay [2] (Homo sapiens, HCT-116, 36 h), not above 4.30.

Regarding `CN1CCCN(CC(=O)Nc2cc(C(=O)Nc3nnc(-c4ccccc4)s3)ccc2OC(F)(F)F)CC1` [Example 168, 3-{[(4-methyl-1,4-diazepan-1-yl)acetyl]amino}-N-(5-phenyl-1,3,4-thiadiazol-2-yl)-4-(trifluoromethoxy)benzamide], the pIC50 in assay [1] (Homo sapiens, HCT-116, 36 h) is 5.97; in assay [2] (Homo sapiens, HCT-116, 36 h), 4.92.

Turning to `O=C(CN1CCCOCC1)Nc1cc(C(=O)Nc2nnc(-c3ccccc3)s2)ccc1OC(F)(F)F` [Example 169, 3-[(1,4-oxazepan-4-ylacetyl)amino]-N-(5-phenyl-1,3,4-thiadiazol-2-yl)-4-(trifluoromethoxy)benzamide], the negative-log IC50 (pIC50) in assay [1] (Homo sapiens, HCT-116, 36 h) is 7.18; in assay [2] (Homo sapiens, HCT-116, 36 h), not above 4.30.

Consider `O=C(CN1CCOCC1)Nc1cc(C(=O)Nc2nnc(-c3ccccc3)s2)ccc1OC1CC1` [Example 170, 4-(cyclopropyloxy)-3-[(morpholin-4-ylacetyl)amino]-N-(5-phenyl-1,3,4-thiadiazol-2-yl)benzamide], for which the negative logarithm of the IC50 (pIC50) was 6.93 in assay [1] (Homo sapiens, HCT-116, 36 h) and not above 4.30 in assay [2] (Homo sapiens, HCT-116, 36 h).

On to `CN1CCN(C2(C(=O)Nc3cc(C(=O)Nc4nnc(-c5ccccc5)s4)ccc3OC3CC3)CC2)CC1` [Example 171, 4-(cyclopropyloxy)-3-({[1-(4-methylpiperazin-1-yl)cyclopropyl]carbonyl}amino)-N-(5-phenyl-1,3,4-thiadiazol-2-yl)benzamide], for which the pIC50 in assay [1] (Homo sapiens, HCT-116, 36 h) is 6.99; in assay [2] (Homo sapiens, HCT-116, 36 h), not above 4.30.

`CCN1CCN(CC(=O)Nc2cc(C(=O)Nc3nnc(-c4ccccc4)s3)ccc2OC(F)(F)F)CC1` [Example 172, 3-{[(4-ethylpiperazin-1-yl)acetyl]amino}-N-(5-phenyl-1,3,4-thiadiazol-2-yl)-4-(trifluoromethoxy)benzamide]: the pIC50 in assay [1] (Homo sapiens, HCT-116, 36 h) is 6.07; in assay [2] (Homo sapiens, HCT-116, 36 h) it was not above 4.30.

Take `CN1CCN(CC(=O)Nc2cc(C(=O)Nc3nnc(-c4ccccc4)s3)ccc2Cl)CC1` [Example 173, 4-chloro-3-{[(4-methylpiperazin-1-yl)acetyl]amino}-N-(5-phenyl-1,3,4-thiadiazol-2-yl)benzamide]: the pIC50 in assay [1] (Homo sapiens, HCT-116, 36 h) is 6.28; in assay [2] (Homo sapiens, HCT-116, 36 h), not above 4.30.

For `CN1CCN(CC(=O)Nc2cc(C(=O)Nc3nnc(-c4ccccc4)s3)ccc2C#N)CC1` [Example 174, 4-cyano-3-{[(4-methylpiperazin-1-yl)acetyl]amino}-N-(5-phenyl-1,3,4-thiadiazol-2-yl)benzamide], the pIC50 in assay [1] (Homo sapiens, HCT-116, 36 h) is 5.42; in assay [2] (Homo sapiens, HCT-116, 36 h), not above 4.30.

Consider `Cc1ccccc1-c1nnc(NC(=O)c2ccc(OC(F)F)c(NC(=O)CN3CCN(C)CC3)c2)s1` [Example 175, 4-(difluoromethoxy)-N-[5-(2-methylphenyl)-1,3,4-thiadiazol-2-yl]-3-{[(4-methylpiperazin-1-yl)acetyl]amino}benzamide], for which the pIC50 in assay [1] (Homo sapiens, HCT-116, 36 h) is 6.67; in assay [2] (Homo sapiens, HCT-116, 36 h) it was 5.15.

For the compound `COCc1ccc(C(=O)Nc2nnc(-c3ccccc3C)s2)cc1NC(=O)CN1CCOCC1` [Example 176, 4-(methoxymethyl)-N-[5-(2-methylphenyl)-1,3,4-thiadiazol-2-yl]-3-[(morpholin-4-ylacetyl)amino]benzamide], the pIC50 in assay [1] (Homo sapiens, HCT-116, 36 h) is 6.50; in assay [2] (Homo sapiens, HCT-116, 36 h), not above 4.30.

`COCc1ccc(C(=O)Nc2nnc(-c3ccccc3C)s2)cc1NC(=O)CN1CCN(C)CC1` [Example 177, 4-(methoxymethyl)-N-[5-(2-methylphenyl)-1,3,4-thiadiazol-2-yl]-3-{[(4-methylpiperazin-1-yl)acetyl]amino}benzamide hydrochloride (1:1)]: the pIC50 in assay [1] (Homo sapiens, HCT-116, 36 h) was 6.34; in assay [2] (Homo sapiens, HCT-116, 36 h), 4.46.

With `CC(C(=O)Nc1cc(C(=O)Nc2ccc(-c3cc(F)cc(F)c3)nc2)ccc1OC(F)(F)F)N1CC2CCC(C1)O2` (stereo not shown) [Example 178, N-[6-(3,5-difluorophenyl)pyridin-3-yl]-3-{[2-(8-oxa-3-azabicyclo[3.2.1]oct-3-yl)propanoyl]amino}-4-(trifluoromethoxy)benzamide], the pIC50 in assay [1] is 7.37; in assay [2], 5.42.

For `CN(C)C1(C(=O)Nc2cc(C(=O)Nc3ccc(-c4ccccc4F)nc3)ccc2OC(F)(F)F)CC1` [Example 179, 3-({[1-(dimethylamino)cyclopropyl]carbonyl}amino)-N-[6-(2-fluorophenyl)pyridin-3-yl]-4-(trifluoromethoxy)benzamide], the negative logarithm of the IC50 (pIC50) in assay [1] (Homo sapiens, HCT-116, 36 h) was 6.44; in assay [2] (Homo sapiens, HCT-116, 36 h), not above 4.30.

On to `CC(C(=O)Nc1cc(C(=O)Nc2ccc(-c3cccc(F)c3)nc2)ccc1OC(F)(F)F)N1CCOCC1` (stereo not shown) [Example 182, N-[6-(3-fluorophenyl)pyridin-3-yl]-3-{[2-(morpholin-4-yl)propanoyl]amino}-4-(trifluoromethoxy)benzamide], for which the pIC50 in assay [1] was 6.54; in assay [2] (Homo sapiens, HCT-116, 36 h), 4.36.

Regarding `CC(C(=O)Nc1cc(C(=O)Nc2ccc(-c3cccc(F)c3)nc2)ccc1OC(F)(F)F)N1CCOCC1` (stereo not shown) [Example 183, N-[6-(3-fluorophenyl)pyridin-3-yl]-3-{[2-(morpholin-4-yl)propanoyl]amino}-4-(trifluoromethoxy)benzamide], the pIC50 in assay [1] was 7.54; in assay [2] it was not above 4.30.

For the compound `O=C(CN1C[C@@H]2C[C@H]1CO2)Nc1cc(NC(=O)c2ccc(-c3cc(F)cc(F)c3)nc2)ccc1OC(F)(F)F` [Example 184, 6-(3,5-difluorophenyl)-N-[3-{[(1S,4S)-2-oxa-5-azabicyclo[2.2.1]hept-5-ylacetyl]amino}-4-(trifluoromethoxy)phenyl] nicotinamide], the negative-log IC50 (pIC50) is 6.71 in assay [1] (Homo sapiens, HCT-116, 36 h) and 4.96 in assay [2] (Homo sapiens, HCT-116, 36 h).

On to `CC(C(=O)Nc1cc(NC(=O)c2ccc(-c3cc(F)cc(F)c3)nc2)ccc1OC(F)(F)F)N1CC2CCC(C1)O2` (stereo not shown) [Example 186, 6-(3,5-difluorophenyl)-N-[3-{[2-(8-oxa-3-azabicyclo[3.2.1]oct-3-yl)propanoyl]amino}-4-(trifluoromethoxy)phenyl] nicotinamide], for which the pIC50 was 7.02 in assay [1] and 5.27 in assay [2].

Regarding `CC(C(=O)Nc1cc(NC(=O)c2ccc(-c3cc(F)cc(F)c3)nc2)ccc1OC(F)(F)F)N1CCOCC1` (stereo not shown) [Example 187, 6-(3,5-difluorophenyl)-N-[3-{[2-(morpholin-4-yl)propanoyl]amino}-4-(trifluoromethoxy)phenyl] nicotinamide], the pIC50 in assay [1] (Homo sapiens, HCT-116, 36 h) is 6.76; in assay [2], 4.38.

Take `CC(C(=O)Nc1cc(NC(=O)c2ccc(-c3cccc(F)c3)nc2)ccc1OC(F)(F)F)N1CC2CCC(C1)O2` (stereo not shown) [Example 188, 6-(3-fluorophenyl)-N-[3-{[2-(8-oxa-3-azabicyclo[3.2.1]oct-3-yl)propanoyl]amino}-4-(trifluoromethoxy)phenyl] nicotinamide]: the values for the pIC50 in assay [1] and in assay [2] were 6.92 and 5.26, respectively.

As for `CC(C(=O)Nc1cc(NC(=O)c2ccc(-c3cccc(F)c3)nc2)ccc1OC(F)(F)F)N1CCOCC1` (stereo not shown) [Example 189, 6-(3-fluorophenyl)-N-[3-{[2-(morpholin-4-yl)propanoyl]amino}-4-(trifluoromethoxy)phenyl] nicotinamide], the pIC50 was 6.86 in assay [1] (Homo sapiens, HCT-116, 36 h) and 5.00 in assay [2].

For the compound `CC(C(=O)Nc1cc(NC(=O)c2ccc(-c3cccc(F)c3)nc2)ccc1OC(F)(F)F)N1CCOCC1` (stereo not shown) [Example 190, 6-(3-fluorophenyl)-N-[3-{[2-(morpholin-4-yl)propanoyl]amino}-4-(trifluoromethoxy)phenyl] nicotinamide], the negative logarithm of the IC50 (pIC50) in assay [1] is 7.06; in assay [2] it was 5.02.
